Results reported in patent publication EP4509497A1, “METHOD FOR PRODUCING ACETYLSALICYLIC ACID NICOTINAMIDE COCRYSTALS AND ACETYLSALICYLIC ACID NICOTINAMIDE COCRYSTALS WITH IMPROVED SOLUBILITY” (Ruhr-Universität Bochum, priority 2023, dated 2025).
Values after ≈ are worked out from the molar mass of the structure shown.

Experiment: Solubility determination (gravimetric, saturated aqueous samples)
Type: physicochemical
Method: Es wurden 15 mL gesättigter wässriger Proben mit Niederschlag in 20 mL-Fläschchen mit dem Acetylsalicylsäure-Nicotinsäureamid-Co-Kristall (1:1), ASS und NIC angesetzt. Die Proben wurden bei Raumtemperatur mit einem Magnetrührer homogenisiert. Nach 1 h und 2 h werden von jeder Probe 4-mal ca. 1 mL Lösung entnommen (4-fach Bestimmung) und durch ein Vorspritzfilter in ein leeres 4 mL Fläschchen überführt. Die Fläschchen werden dann bis zur Verdampfung des Lösemittels offen stehengelassen. Die Fläschchen wurden leer, mit der gesättigten Lösung und nach dem Verdampfen gewogen. Die Löslichkeit in Masseprozent ergibt sich über die Differenz aus Gewicht nach dem Verdampfen und dem Leegewicht.

Row | Compound | solubility thermodynamic at 1 h (water) | solubility thermodynamic at 2 h (water) | ASS-Löslichkeit gesteigert um einen Faktor (ASS in co-crystal (ASS:NA 1:1) versus pure ASS, Fig. 7, after 1 h) | Löslichkeit Nach 1 h (water, 1 h) | Löslichkeit Nach 1 h (ASS im Co-Kristall) (water, 1 h) | Löslichkeit Nach 2 h (water, 2 h) | Löslichkeit Nach 2 h (ASS im Co-Kristall) (water, 2 h)
1 | CC(=O)Oc1ccccc1C(=O)O [Acetylsalicylsäure, 2-Acetoxybenzoesäure, reference compound] | 4140 µg/mL (≈ 23 mM) | 4260 µg/mL (≈ 23.6 mM) | – | – | – | – | –
2 | Acetylsalicylsäure-Nicotinsäureamid-Co-Kristall | – | – | ca. 2,5 | 1,768 ω % | 1,054 ω % | 1,777 ω % | 1,059 ω %
